pIC50: −log10 of the molar value. Where only a bound is given, the exact number is not on record here.

Here are results for six compounds from US12338256B2, “Aza-tetracyclic oxazepine compounds and uses thereof” (Genentech, Inc., priority 2022, dated 2025).

In test [1] the test system is AsPC-1 (homozygous mutant KRAS G12D human pancreatic cell line). Nature of the test: KRAS 3D-Cell Proliferation Assay, AsPC-1 (Example 503). The class given is cell-based. The settings on record: Homo sapiens, ASPC1, 168 h, AsPC-1 3D culture, 7 days, CellTiter-Glo 3D; read-out: Prolif AsPC-1 3D ATP IC50. In a few lines: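 3D culture, ultra-low attachment wells; RPMI-1640/10% FBS/2 mM L-glutamine. Overnight settle, then compound series, 0.3% DMSO final, 7 d, 37° C, 5% CO2. Readout: CellTiter-Glo 3D luminescence. % inhibition vs DMSO (0%) and 1 μM staurosporine (100%); IC50 via 4-parameter Hill.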

In test [2] the test system is PC-9 (KRAS wild type human lung adenocarcinoma cell line). Nature of the test: KRAS 3D-Cell Proliferation Assay, PC-9 (Example 503). The class given is cell-based. Particulars: 168 h, PC-9 3D culture, 7 days, CellTiter-Glo 3D, read-out: Prolif PC9 3D ATP IC50. The method, then: Example 503: KRAS 3D-Cell Proliferation Assays. Cellular potencies of compounds are assessed by evaluating inhibition of proliferation in 3D cultures of homozygous mutant KRAS G12D human pancreatic cell lines (AsPC-1 and HPAC) as compared to a KRAS wild type human lung adenocarcinoma cell line (PC-9 and/or H1975). Cells are seeded into 384-well black round-bottom, ultra-low attachment assay plates in 50 uL cell growth medium (RPMI-1640 with 10% fetal bovine serum and 2 mM L-glutamine). After overnight incubation at 37° C. and 5% CO2, compounds solubilized in DMSO are added as dilution series to the wells in a total volume of 150 nL (0.3% DMSO final). The cells are incubated for 7 days at 37° C. and 5% CO2. Cell proliferation is quantitated by addition of 40 uL/well of CellTiter-GloÒ 3D (Promega), and the well contents are mixed 20× at high speed using liquid handling automation workstation (Bravo with 384-well head) and centrifuged at 1500 rpm for 2 minutes to eliminate bubbles. This reagent in combination with mechanical disruption releases the cellular ATP to promote activity in a luciferase-based enzyme/substrate chemiluminescent detection system. After a 30-minute incubation under ambient conditions with shaking and an additional 10 minutes without shaking, the luminescence is read on a plate reader (e.g., EnVision [PerkinElmer]). The results are normalized to percent inhibition based on the following control samples: DMSO (0% inhibition) and 1 μM staurosporine (100% inhibition). The normalized luminescence results are plotted against compound concentration, and the data are fit to a 4-parameter Hill equation to determine the IC50 values.
In general terms: ATP-based viability assays read luminescence as a measure of living cells.

In the case of `Cc1c(F)c(N)cc(-c2nc3c4c(nc(OC[C@@]56CCCN5C[C@H](OCc5ccc(-c7ccccc7C#N)cc5)C6)nc4c2F)N2C[C@H]4CC[C@H](N4)[C@H]2[C@H](C)O3)c1C(F)(F)F` [Compound 32, 4′-((((2R,7aS)-7a-((((5S,5aS,6S,9R)-2-(5-amino-4-fluoro-3-methyl-2-(trifluoromethyl)phenyl)-1-fluoro-5-methyl-5a,6,7,8,9,10-hexahydro-5H-4-oxa-3,10a,11,13,14-pentaaza-6,9-methanonaphtho[1,8-ab]heptalen-12-yl)oxy)methyl)hexahydro-1H-pyrrolizin-2-yl)oxy)methyl)-[1,1′-biphenyl]-2-carbonitrile], the figures for the pIC50 in test [1] and in test [2] were 8.47 and 6.09, respectively.

Consider `C[C@@H]1Oc2nc(-c3nc(N)cc4ccccc34)c(F)c3nc(OC[C@@]45CCCN4C[C@H](F)C5)nc(c23)N2C[C@H]3CC[C@H](N3)[C@@H]12` [Compound 41, 1-((5S,5aS,6S,9R)-1-fluoro-12-(((2R,7aS)-2-fluorotetrahydro-1H-pyrrolizin-7a(5H)-yl)methoxy)-5-methyl-5a,6,7,8,9,10-hexahydro-5H-4-oxa-3,10a,11,13,14-pentaaza-6,9-methanonaphtho[1,8-ab]heptalen-2-yl)isoquinolin-3-amine], for which the pIC50 in test [1] was 6.01; in test [2], at most 4.70.

For the compound `Cc1cc(N)nc(-c2nc3c4c(nc(OC[C@@]56CCCN5CC5(CC5(F)F)C6)nc4c2F)N2C[C@H]4CC[C@H](N4)[C@H]2CO3)c1C(F)(F)F` (stereo partly drawn) [Compound 42, 6-((5aS,6S,9R)-12-(((7a′S)-2,2-difluorodihydro-1′H,3′H-spiro[cyclopropane-1,2′-pyrrolizin]-7a′(5′H)-yl)methoxy)-1-fluoro-5a,6,7,8,9,10-hexahydro-5H-4-oxa-3,10a,11,13,14-pentaaza[6,9]methanonaphtho[1,8-ab]heptalen-2-yl)-4-methyl-5-(trifluoromethyl)pyridin-2-amine], the negative-log IC50 (pIC50) is 6.91 in test [1] and 5.15 in test [2].

In the case of `Cc1cc(N)nc(-c2nc3c4c(nc(OC[C@@]56CCCN5C[C@H](F)C6)nc4c2F)N2C[C@H]4CC[C@H](N4)[C@H]2CO3)c1C(F)(F)F` [Compound 44, 6-((5aS,6S,9R)-1-fluoro-12-(((2R,7aS)-2-fluorotetrahydro-1H-pyrrolizin-7a(5H)-yl)methoxy)-5a,6,7,8,9,10-hexahydro-5H-4-oxa-3,10a,11,13,14-pentaaza-6,9-methanonaphtho[1,8-ab]heptalen-2-yl)-4-methyl-5-(trifluoromethyl)pyridin-2-amine], the pIC50 in test [1] was 6.47; in test [2], at most 4.70.

On to `C#Cc1c(F)ccc2cccc(-c3nc4c5c(ncnc5c3F)N3C[C@H]5CC[C@H](N5)[C@H]3[C@H](C)O4)c12` [Compound 56, (5S,5aS,6S,9R)-2-(8-ethynyl-7-fluoronaphthalen-1-yl)-1-fluoro-5-methyl-5a,6,7,8,9,10-hexahydro-5H-4-oxa-3,10a,11,13,14-pentaaza-6,9-methanonaphtho[1,8-ab]heptalene], for which the values for the negative logarithm of the IC50 (pIC50) in test [1] and in test [2] were 5.24 and at most 4.70, respectively.

`C[C@@H]1Oc2nc(-c3cc(N)c(F)cc3C(F)(F)F)c(F)c3nc(OC[C@]45CCN4CC(F)(F)C5)nc(c23)N2C[C@H]3CC[C@H](N3)[C@@H]12` [Compound 71, 5-((5S,5aS,6S,9R)-12-(((R)-3,3-Difluoro-1-azabicyclo[3.2.0]heptan-5-yl)methoxy)-1-fluoro-5-methyl-5a,6,7,8,9,10-hexahydro-5H-4-oxa-3,10a,11,13,14-pentaaza-6,9-methanonaphtho[1,8-ab]heptalen-2-yl)-2-fluoro-4-(trifluoromethyl)aniline]: the negative-log IC50 (pIC50) in test [1] is 6.88; in test [2], at most 4.70.

The term pIC50 denotes the negative decadic logarithm of the IC50, by convention in mol/L.
